pIC50: −log10 of the molar value.

The test can be described thus: Inhibition of recombinant perforin (unknown origin) mediated lysis of human Jurkat cells pre-incubated for 30 mins with perforin followed by incubation with Jurkat cells at 37 degC for 4 hrs assessed as 51Cr release by gamma counting analysis.
Turning to `Cc1ccccc1-c1ccc(-c2ccc3c(c2)COC3=O)s1`, the pIC50 was under 4.70. With `N#Cc1cccc(-c2ccc(-c3ccc4c(c3)COC4=O)s2)c1`, the pIC50 is 4.70.

Regarding `COc1ccc(-c2ccc(-c3ccc4c(c3)COC4=O)s2)cc1`, the pIC50 is 5.03. The value for `COc1cccc(-c2ccc(-c3ccc4c(c3)COC4=O)s2)c1` was under 4.70; that for `CC(C)(C)NS(=O)(=O)c1ccc(-c2ccc(-c3ccc4c(c3)COC4=O)s2)cc1` was 5.22; that for `NC(=O)c1ccc(-c2ccc(-c3ccc4c(c3)CNC4=O)s2)cc1` was 5.22. The value for `N#Cc1ccc(-c2ccc(-c3ccc4c(c3)COC4=O)s2)cc1` was 5.16; that for `CCOC(=O)c1ccc(-c2ccc(-c3ccc4c(c3)COC4=O)s2)cc1` was 4.96; that for `CN1CCN(C(=O)c2ccc(-c3ccc(-c4ccc5c(c4)COC5=O)s3)cc2)CC1` was under 4.70. In the case of `O=C1OCc2cc(-c3ccc(-c4ccccc4Cl)s3)ccc21`, the pIC50 is under 4.70. As to `CS(=O)(=O)Nc1ccc(-c2ccc(-c3ccc4c(c3)COC4=O)s2)cc1`, the pIC50 is 5.96. `CN(C)CCCNC(=O)c1ccc(-c2ccc(-c3ccc4c(c3)COC4=O)s2)cc1`: the pIC50 is under 4.70. The value for `Cc1cccc(-c2ccc(-c3ccc4c(c3)COC4=O)s2)c1` was under 4.70; that for `NC(=O)CNC(=O)c1ccc(-c2ccc(-c3ccc4c(c3)COC4=O)s2)cc1O` was 5.58. The value for `O=C1OCc2cc(-c3ccc(-c4ccc(CO)cc4)s3)ccc21` was 6.05. Under `NC(=O)c1ccc(-c2ccc(-c3ccc4c(c3)COC4=O)s2)cc1` stands 6.74; under `NC(=O)c1ccc(-c2ccc(-c3ccc4c(c3)COC4=O)s2)cn1`, 6.04; under `CS(=O)(=O)c1ccc(-c2ccc(-c3ccc4c(c3)COC4=O)s2)cc1`, under 4.70. Turning to `NC(=O)CCNC(=O)c1ccc(-c2ccc(-c3ccc4c(c3)COC4=O)s2)cc1O`, the pIC50 is 5.15. As for `O=C1OCc2cc(-c3ccc(-c4ccncc4)s3)ccc21`, the negative-log IC50 (pIC50) is 5.34. As for `CN(C)CCNC(=O)c1ccc(-c2ccc(-c3ccc4c(c3)COC4=O)s2)cc1N`, the pIC50 was under 4.70. Under `CN1Cc2cc(-c3ccc(-c4ccc(C(N)=O)cc4)s3)ccc2C1=O` stands under 4.70; under `O=C1OCc2cc(-c3ccc(-c4cccc(O)c4)s3)ccc21`, 5.23. On to `CNC(=O)c1ccc(-c2ccc(-c3ccc4c(c3)COC4=O)s2)cc1`, for which the pIC50 was 4.97.

Regarding `Nc1cc(-c2ccc(-c3ccc4c(c3)COC4=O)s2)ccc1C(=O)NCCN1CCOCC1`, the pIC50 was 4.83. For the molecule `NC(=O)c1cccc(-c2ccc(-c3ccc4c(c3)COC4=O)s2)c1`, the pIC50 was 5.53.

For the molecule `NC(=O)c1ccc(-c2ccc(-c3ccc4c(c3)COC4=O)s2)cc1O`, the pIC50 is 6.17. As for `O=C1OCc2cc(-c3ccc(-c4ccccc4)s3)ccc21`, the pIC50 is under 4.70. `CCOC(=O)c1ccc(-c2ccc(-c3ccc4c(c3)COC4=O)s2)cc1O`: the pIC50 was under 4.70. As for `O=C1OCc2cc(-c3ccc(-c4ccc(Cl)cc4)s3)ccc21`, the negative-log IC50 (pIC50) was under 4.70.

Regarding `O=C1OCc2cc(-c3ccc(-c4cccc(Cl)c4)s3)ccc21`, the pIC50 was under 4.70. `Cc1ccc(-c2ccc(-c3ccc4c(c3)COC4=O)s2)cc1`: the pIC50 is under 4.70. The value for `CC(O)CNC(=O)c1ccc(-c2ccc(-c3ccc4c(c3)COC4=O)s2)cc1O` (stereo unspecified) was under 4.70; that for `NC(=O)c1ccc(-c2ccc(-c3ccc4c(c3)COC4=O)s2)cc1N` was 5.92; that for `Nc1ccc(-c2ccc(-c3ccc4c(c3)COC4=O)s2)cc1` was 4.93. The value for `COc1ccccc1-c1ccc(-c2ccc3c(c2)COC3=O)s1` was under 4.70; that for `Nc1cccc(-c2ccc(-c3ccc4c(c3)COC4=O)s2)c1` was 4.85; that for `O=C1OCc2cc(-c3ccc(-c4ccc(O)cc4)s3)ccc21` was under 4.70. For `CSc1ccc(-c2ccc(-c3ccc4c(c3)COC4=O)s2)cc1`, the pIC50 is under 4.70. Under `CN(C)C(=O)c1ccc(-c2ccc(-c3ccc4c(c3)COC4=O)s2)cc1` stands under 4.70; under `Nc1cc(-c2ccc(-c3ccc4c(c3)COC4=O)s2)ccc1C(=O)O`, 5.23; under `O=C1OCc2cc(-c3ccc(-c4ccc5c(c4)COC5=O)s3)ccc21`, 5.20. Regarding `O=C(NCCO)c1ccc(-c2ccc(-c3ccc4c(c3)COC4=O)s2)cc1O`, the pIC50 is 5.48. Consider `NS(=O)(=O)c1cccc(-c2ccc(-c3ccc4c(c3)COC4=O)s2)c1`, for which the pIC50 is 5.31. Consider `CN(C)CCNC(=O)c1ccc(-c2ccc(-c3ccc4c(c3)COC4=O)s2)cc1O`, for which the pIC50 was under 4.70. With `O=C(NCCN1CCOCC1)c1ccc(-c2ccc(-c3ccc4c(c3)COC4=O)s2)cc1O`, the pIC50 is 4.89.

Values taken from BindingDB's records for doi:10.1016/j.bmcl.2015.12.003 (University of Auckland, 2016).
